Experimental data reported in patent US20040229791A1, “Compositions and methods of modulating TGF-beta activity by fatty acids” (priority 2002, published 2004).

Tests used:
125I-TGF-β2-α2M* complex = target: T1, 125I-TGF-β2-α2M* complex (Homo sapiens, UniProt P01023); test: Dissociation of preformed 125I-TGF-β2-α2M* complex; assay type: binding; details: added after 30 min preincubation of complex
T1 construct: was purified from pooled citrate-treate human plasma; from tissue; host or cells: pooled citrate-treated human plasma
T1 sequence (P01023 24-1474): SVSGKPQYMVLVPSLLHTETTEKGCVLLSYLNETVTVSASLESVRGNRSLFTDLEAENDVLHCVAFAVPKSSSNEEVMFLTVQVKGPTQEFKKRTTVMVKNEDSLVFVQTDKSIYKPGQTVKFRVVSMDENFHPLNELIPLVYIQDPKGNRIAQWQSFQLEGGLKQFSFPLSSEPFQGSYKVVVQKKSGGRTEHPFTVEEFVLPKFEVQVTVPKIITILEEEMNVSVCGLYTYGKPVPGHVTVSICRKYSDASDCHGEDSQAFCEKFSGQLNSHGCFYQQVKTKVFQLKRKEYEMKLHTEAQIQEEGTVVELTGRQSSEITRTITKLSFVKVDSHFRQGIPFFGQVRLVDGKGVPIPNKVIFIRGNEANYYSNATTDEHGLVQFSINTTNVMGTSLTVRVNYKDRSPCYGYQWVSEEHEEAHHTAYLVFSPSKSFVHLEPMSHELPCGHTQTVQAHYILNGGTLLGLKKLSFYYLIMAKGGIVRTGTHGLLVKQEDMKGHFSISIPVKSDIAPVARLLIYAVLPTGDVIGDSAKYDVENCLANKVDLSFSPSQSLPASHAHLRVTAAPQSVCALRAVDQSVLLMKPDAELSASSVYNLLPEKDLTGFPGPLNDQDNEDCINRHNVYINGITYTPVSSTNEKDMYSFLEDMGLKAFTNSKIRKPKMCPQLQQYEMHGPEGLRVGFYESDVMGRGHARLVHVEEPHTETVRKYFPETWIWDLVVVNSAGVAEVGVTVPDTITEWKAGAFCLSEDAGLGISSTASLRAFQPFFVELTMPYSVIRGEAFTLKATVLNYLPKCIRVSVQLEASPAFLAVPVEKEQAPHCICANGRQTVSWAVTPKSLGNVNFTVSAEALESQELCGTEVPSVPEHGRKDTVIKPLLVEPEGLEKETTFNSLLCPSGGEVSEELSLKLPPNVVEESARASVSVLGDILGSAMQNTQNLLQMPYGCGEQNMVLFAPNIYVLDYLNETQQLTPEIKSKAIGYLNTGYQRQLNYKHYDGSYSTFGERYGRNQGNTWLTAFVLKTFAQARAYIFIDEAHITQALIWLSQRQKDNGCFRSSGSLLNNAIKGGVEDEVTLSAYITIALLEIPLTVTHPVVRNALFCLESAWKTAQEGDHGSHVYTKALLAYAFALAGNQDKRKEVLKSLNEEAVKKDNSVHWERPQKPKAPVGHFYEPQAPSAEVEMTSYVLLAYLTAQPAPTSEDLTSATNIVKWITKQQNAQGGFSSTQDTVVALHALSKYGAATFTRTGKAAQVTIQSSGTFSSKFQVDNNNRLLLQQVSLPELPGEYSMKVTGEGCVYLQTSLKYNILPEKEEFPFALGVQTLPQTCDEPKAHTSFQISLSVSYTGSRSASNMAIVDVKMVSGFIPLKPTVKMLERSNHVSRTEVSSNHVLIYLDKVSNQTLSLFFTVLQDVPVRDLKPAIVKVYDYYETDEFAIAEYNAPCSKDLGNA

[1] = Plasma clearance of 125I-TGF-β1 with and without α2M* and arachidonic acid; assay type: in vivo, mice; details: control experiments, no α2M*
Protocol: TGF ? β1-α2M* and TGF- ? 2- ? 2M* complexes are cleared from plasma by the ? liver (30). To test the possibility that fatty acids may be able to affect the plasma clearance of TGF ? β and α2M* complexes, ^125I-TGF ? β1 or ^125I-TGF- ? 2 were prei presence or absence of 10 μM arachidonic acid at room temperature for 30 min, and then injected into mice via tail vein according to published procedures (19). At several time intervals (10 sec, 1, 2, 3, 5, 10, 15, 20, 30 and 60 min) about 50 μl of blood was collected and counted by a γ-counter. […] The t 1+α2M* or ^125I-TGF- ? 2+α2M* were approximately 4 min. These twith published values of free ^125I-TGF- ? 1,2 and ^125I-TGF- ? 1,2-α2M* complexes, respe (19). In the presence of arachidonic acid, the t1/2s of ^125I-TGF ? β1+α2M* and ^125I-TGF α2M* were decreased to approximately 1-2 min; these are essentially identical to the t1/2s of free ^125I-TGF- ? 1 and ^125I-TGF ? β2 (FIGS. 7A and B). In control experiments, arachidonic acid did no affect the plasma clearance of free ^125I-TGF ? β1 and ^125I-TGF- ? 2.
Plasma clearance of ^125I-TGF ? β in the presence and absence of ? 2M*-^125I-TGF- ? 1 nM) or ^125I-TGF- ? 2 (1 nM) was pre-incubated with ? […] The radioactivity in the blood sample obtained at 10 s was taken as 100%.

[2] = target: T2, α2M* and basic fibroblast growth factor (bFGF) (Homo sapiens, UniProt P01023); test: Complex formation between α2M* and basic fibroblast growth factor; assay type: binding
T2 sequence (P01023 24-1474): T1 sequence (P01023 24-1474)

## CCCCC/C=C\C/C=C\C/C=C\C/C=C\CCCC(=O)O [arachidonic acid]
125I-TGF-β2-α2M* complex
  concentration dissociating the 125I-TGF-β2-α2M* complex: 250 µM
[1]
  effect on plasma clearance of free 125I-TGF-β1: did no affect
[2]
  blocking of complex formation between α2M* and bFGF: block complex formation
